US20130143933A1, “TARGETED CORRECTION OF A GENETIC DEFECT IN CANCER THERAPY” (TRT Pharma Inc., priority 2011, published 2013)

Tests used:
[1] = system: A2ARE-dependent reporter activity in A549 cells; experiment: ARE-dependent luciferase assay (A2ARE-luc reporter) in A549 cells; type: cell-based; conditions: NR16 at 1, 2.5 and 5 μM, NR13 at 2.5 μM, 24 hours, vs DMSO vehicle
Experimental: A549 cells are highly resistant to carboplatin and constitutively express high level of Nrf2 due to a mutation (G333C) in Keap1. Using ARE-dependent luciferase assays in A549 cells, which have constitutively high Nrf2 levels, the 18 compounds that are designed to target the CTD of Keap1 are tested. Included amongst these are NR16 and NR13. […] A2ARE-luc plasmid is transiently transfected into A549 cells. pRL-TK is included as internal control. Transfected cells are treated with DMSO vehicle, compound NR16 at 1, 2.5 and 5 μM as well as NR13 at 2.5 μM for 24 hours. **p<0.005, ***p<0.0005 when compared with DMSO vehicle.
A2ARE-luc and pRL-TK plasmids are transiently transfected into A549 cells. 6 hours after transfection, the transfected cells are exposed to DMSO vehicle control or compound at designated doses (5 μM) for 24 hours. ***p<0.0001 when compared with vehicle control.

[2] = system: Nrf2; experiment: Immunoblotting of Nrf2 protein levels in A549 cells; type: cell-based; conditions: 48 hours, NR16 at 1 and 5 μM, compared to DMSO
Experimental: This effect is mediated by a depletion of Nrf2, as confirmed by immunoblotting of Nrf2 protein levels in A549 cells, exposed to NR16 for 48 hours (FIG. 4).

[3] = system: phospho-GSK at Ser9 position; experiment: phospho-GSK (Ser9) level in H460 cells exposed to PF-04691502; type: cell-based; conditions: H460 cells (PI3K E545K, Keap1 D286H); within 6 hours
Experimental: (§1) H460 cells, which bear both mutations in PI3K (E545K) and Keap1 (D286H) are exposed the cells to the dual and potent PI3K and mTOR inhibitor PF-04691502 currently in clinical development. Within 6 hours a dramatic drop in phospho-GSK at the critical Ser9 position is detected (FIG. 6A). Within 24 hours cellular Nrf2 is reduced (FIG. 6A). This is not observed even at a higher dose in A549 cells, which have wild type PI3K (FIG. 6B).

[4] = system: Nrf2; experiment: Cellular Nrf2 level in H460 cells exposed to PF-04691502; type: cell-based; conditions: within 24 hours
Experimental: as §1

[5] = system: A549 cells (wild type PI3K); experiment: phospho-GSK / Nrf2 level in A549 cells exposed to PF-04691502; type: cell-based; conditions: even at a higher dose
Experimental: as §1

[6] = system: H460 cells; experiment: Sensitization to paclitaxel, AlamarBlue cell survival, H460; type: cell-based; conditions: PF at 10 and 50 nm, range of paclitaxel doses
Experimental: PF-04691502 is tested to determine is it sensitizes H460 cells to paclitaxel in vitro, using two concentrations of PF (10 and 50 nm) and a range of paclitaxel doses. Cell survival is measured using AlamarBlue and fluorescence detection for viable (metabolically active) cells with 560Exnm/590EMnm filters.

[7] = system: A549; experiment: Sensitization to paclitaxel, AlamarBlue cell survival, A549; type: cell-based; conditions: A549, Keap1 mutation but wild type PI3K
[8] = system: MCF-7 cells; experiment: Sensitization to paclitaxel, AlamarBlue cell survival, MCF-7; type: cell-based; conditions: MCF-7, PI3K mutation but no Keap1 mutation
[9] = system: MCF7 cells; experiment: Sensitization to cisplatin or paclitaxel in Keap1-depleted (siRNA) MCF7 cells, Alamar blue; type: cell-based; conditions: MCF7 cells with Keap1 depletion (siRNA); PF-04691502 50nM for 24 h
From the text: To further test the specific cytotoxicity of PF-04691502, H460 cells are transfected with an siRNA specifically designed to deplete GSK-3R levels. Another siRNA that depletes Keap1 is used to test whether cells which have an activating mutation of PI3K, but WT Keap1, (e.g. MCF7), are sensitized by PF-04691502 when Keap1 is depleted. The pSuper platform (OligoEngine, Seattle, Wash.) is used to clone both siRNAs. Small inhibitory RNA sequences are designed using software available online at invitrogen.com. The siRNA, when dimerized form Bgl II and Hind III restriction sites. The oligos are cloned into the Bgl II/Hind III sites of the pSuper-puro vector.
These experiments confirm that the proposed mechanism of sensitization is GSK-dependent in Keap1 mutated or depleted (siRNA) cells. Cells are exposed to PF-04691502 50nM for 24 h, at which time media is replaced with fresh PF-04691502 and one of either cisplatin or paclitaxel is added at various doses. Cell survival is determined using Alamar blue. The shift in IC50 is determined.

[10] = system: pAkt (and pGSK-3β); conditions: mouse xenograft models; oral, once daily, 10 mg/Kg; cited from earlier work

Row | Structure (SMILES) | A2ARE-dependent reporter activity [1] | Nrf2 protein level (western blot) [2] | phospho-GSK at Ser9 position [3] | cellular Nrf2 [4] | drop in phospho-GSK / reduction of cellular Nrf2 [5] | sensitization to paclitaxel (cell survival) [6] | sensitization to paclitaxel (cell survival) [7] | sensitization to paclitaxel (cell survival) [8] | sensitization to cisplatin or paclitaxel (cell survival) [9] | depletion of phosphorylated forms of proteins in the PI3K pathway such as pAkt (and pGSK-3β) [10] | persistence of depletion of phosphorylated PI3K pathway proteins [10] [h]
1 | O=C(CCCSCCCC(=O)N/N=C/c1ccccc1)N/N=C/c1ccccc1 [NR13] | inactive | inactive |  |  |  |  |  |  |  |  | 
2 | O=C(CCCSCCCC(=O)N/N=C/c1ccccc1O)N/N=C/c1ccccc1O [NR16] | suppressed A2ARE-dependent reporter activity | dose-dependent decrease |  |  |  |  |  |  |  |  | 
3 | COc1ccc(-c2cc3c(C)nc(N)nc3n([C@H]3CC[C@H](OCCO)CC3)c2=O)cn1 [PF-04691502] |  |  | dramatic drop | reduced | not observed | significant sensitization | no sensitization | no sensitization | sensitizing effect | significant depletion | ≥ 8
